# Experimental data published in publication PMC11374673, “Discovery of isoquinoline sulfonamides as allosteric gyrase inhibitors with activity against fluoroquinolone-resistant bacteria” (Nature Chemistry, 2024).
# “And” between values parts separate entries of the source, which are not always exact repeats. Identical values can stand only once.
# Columns and labels:
# HEK293T = assay: Cytotoxicity assay (MTT); assay type: cell-based, human; settings: for MTT data (raw reading) / MTT data (raw readout): HEK293T; for IC50: Homo sapiens, HEK-293T, 24 h, MTT
# How it was run: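 HEK293T cells, maintained at 37 °C and 7% CO2 in Dulbecco’s modified Eagle medium with GlutaMax, antibiotics and serum, were plated in clear 96-well plates in 100 µl medium containing 1% fetal bovine serum and left 24 h to attach. After 24 h compound exposure, MTT (0.40 mg ml^−1) was added for 2 h. Formazan was dissolved in 100 µl DMSO and absorbance measured at 570 nm. Background-corrected IC50 values came from variable-slope non-linear fits.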
# HepG2 = assay: Cytotoxicity assay (MTT); assay type: cell-based, human; settings: for IC50: Homo sapiens, HepG2, 24 h, MTT, 24 h
# K. pneumoniae ATCC 29665 = assay: MIC by broth microdilution; assay type: cell-based, Klebsiella pneumoniae; settings: Klebsiella pneumoniae, ATCC29665, broth microdilution; read-out: MIC K. pneumoniae ATCC 29665
# How it was run: (§1)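 Exponential-phase cultures (OD600 0.5, 37 °C aerobic), diluted 100-fold in CAMHB, were added to twofold compound dilution series. Keio strains grown with 50 µg ml^−1 kanamycin. Plates incubated overnight at 37 °C, shaking at 600 r.p.m.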
# E. coli W3110 = assay: MIC by broth microdilution; assay type: cell-based, Escherichia coli; settings: Escherichia coli, W3110, WT, broth microdilution; read-out: MIC E. coli W3110
# How it was run: as §1
# [1] = 0.023 uM, experiment n = 1, technical triplicates
# [2] = 0.023 uM, experiment n = 2, technical triplicates
# [3] = 0.068 uM, experiment n = 1, technical triplicates
# [4] = 0.068 uM, experiment n = 2, technical triplicates
# [5] = 0.21 uM, experiment n = 1, technical triplicates
# [6] = 0.21 uM, experiment n = 2, technical triplicates
# [7] = 0.62 uM, experiment n = 1, technical triplicates
# [8] = 0.62 uM, experiment n = 2, technical triplicates
# [9] = 1.85 uM, experiment n = 1, technical triplicates
# [10] = 1.85 uM, experiment n = 2, technical triplicates
# [11] = 5.6 uM, experiment n = 1, technical triplicates
# [12] = 5.6 uM, experiment n = 2, technical triplicates
# [13] = 16.7 uM, experiment n = 1, technical triplicates
# [14] = 16.7 uM, experiment n = 2, technical triplicates
# [15] = HepG2, 0.023 uM, experiment n = 1, technical triplicates
# [16] = HepG2, 0.023 uM, experiment n = 2, technical triplicates
# [17] = HepG2, 0.068 uM, experiment n = 1, technical triplicates
# [18] = HepG2, 0.068 uM, experiment n = 2, technical triplicates
# [19] = HepG2, 0.21 uM, experiment n = 1, technical triplicates
# [20] = HepG2, 0.21 uM, experiment n = 2, technical triplicates
# [21] = HepG2, 0.62 uM, experiment n = 1, technical triplicates
# [22] = HepG2, 0.62 uM, experiment n = 2, technical triplicates
# [23] = HepG2, 1.85 uM, experiment n = 1, technical triplicates
# [24] = HepG2, 1.85 uM, experiment n = 2, technical triplicates
# [25] = HepG2, 5.6 uM, experiment n = 1, technical triplicates
# [26] = HepG2, 5.6 uM, experiment n = 2, technical triplicates
smiles,measurement,setting,value
O=S(=O)(NCCNCc1ccc(-c2ccc(Cl)cc2)cc1)c1cccc2cnccc12 [Compound 61],MTT data (raw reading),"HEK293T; 0.023 uM, n = 1",0.895 and 1.117 and 0.888
same,MTT data (raw reading),"HEK293T; 0.023 uM, n = 2",0.606 and 0.823 and 0.767
same,MTT data (raw reading),"HEK293T; 0.068 uM, n = 1",1.228 and 1.100 and 1.289
same,MTT data (raw reading),"HEK293T; 0.068 uM, n = 2",0.594 and 0.790 and 0.797
same,MTT data (raw reading),"HEK293T; 0.21 uM, n = 1",1.193 and 1.192 and 1.600
same,MTT data (raw reading),"HEK293T; 0.21 uM, n = 2",0.478 and 0.738 and 0.728
same,MTT data (raw reading),"HEK293T; 0.62 uM, n = 1",0.992 and 0.937 and 0.903
same,MTT data (raw reading),"HEK293T; 0.62 uM, n = 2",0.540 and 0.686 and 0.703
same,MTT data (raw reading),"HEK293T; 1.85 uM, n = 1",0.640 and 0.552 and 0.507
same,MTT data (raw reading),"HEK293T; 1.85 uM, n = 2",0.345 and 0.480 and 0.465
same,MTT data (raw reading),"HEK293T; 5.6 uM, n = 1",0.114 and 0.126 and 0.094
same,MTT data (raw reading),"HEK293T; 5.6 uM, n = 2",0.048 and 0.047 and 0.040
same,MTT data (raw reading),"HEK293T; 16.7 uM, n = 1",0.021 and 0.012 and 0.016
same,IC50,HEK293T,1 µM
same,MTT data (raw reading),"HepG2; HepG2, 0.023 uM, n = 1",0.473 and 0.481 and 0.514
same,MTT data (raw reading),"HepG2; HepG2, 0.023 uM, n = 2",0.517 and 0.561 and 0.567
same,MTT data (raw reading),"HepG2; HepG2, 0.068 uM, n = 1",0.534 and 0.501 and 0.482
same,MTT data (raw reading),"HepG2; HepG2, 0.068 uM, n = 2",0.479 and 0.534 and 0.570
same,MTT data (raw reading),"HepG2; HepG2, 0.21 uM, n = 1",0.462 and 0.484 and 0.480
same,MTT data (raw reading),"HepG2; HepG2, 0.21 uM, n = 2",0.576 and 0.558 and 0.573
same,MTT data (raw reading),"HepG2; HepG2, 0.62 uM, n = 1",0.454 and 0.449
same,MTT data (raw reading),"HepG2; HepG2, 0.62 uM, n = 2",0.464 and 0.502 and 0.467
same,MTT data (raw reading),"HepG2; HepG2, 1.85 uM, n = 1",0.401 and 0.414 and 0.404
same,MTT data (raw reading),"HepG2; HepG2, 1.85 uM, n = 2",0.454 and 0.456 and 0.471
same,MTT data (raw reading),"HepG2; HepG2, 5.6 uM, n = 1",0.017 and 0.021 and 0.022
same,MTT data (raw reading),"HepG2; HepG2, 5.6 uM, n = 2",0.042 and 0.022 and 0.021
same,MTT data (raw reading),"HepG2; HepG2, 16.7 uM, n = 1",0.009 and 0.013
same,IC50,HepG2,2.8 µM
same,MIC,K. pneumoniae ATCC 29665,> 50 µM
same,MIC,E. coli W3110,6.25 µM
O=S(=O)(NCCNCc1ccc(-c2ccc(F)nc2)c(F)c1)c1cccc2cnccc12 [Compound 89],MTT data (raw readout),HEK293T; [1],1.460 and 1.327 and 1.155
same,MTT data (raw readout),HEK293T; [2],1.578 and 1.464 and 1.567
same,MTT data (raw readout),HEK293T; [3],1.383 and 1.285 and 1.405
same,MTT data (raw readout),HEK293T; [4],1.657 and 1.634 and 1.543
same,MTT data (raw readout),HEK293T; [5],1.422 and 1.388 and 1.379
same,MTT data (raw readout),HEK293T; [6],1.511 and 1.515 and 1.445
same,MTT data (raw readout),HEK293T; [7],1.302 and 1.254 and 1.287
same,MTT data (raw readout),HEK293T; [8],1.280 and 1.339 and 1.417
same,MTT data (raw readout),HEK293T; [9],1.134 and 1.184 and 1.193
same,MTT data (raw readout),HEK293T; [10],1.303 and 1.294 and 1.289
same,MTT data (raw readout),HEK293T; [11],0.891 and 0.915 and 0.826
same,MTT data (raw readout),HEK293T; [12],0.987 and 0.926 and 0.889
same,MTT data (raw readout),HEK293T; [13],0.240 and 0.299 and 0.212
same,MTT data (raw readout),HEK293T; [14],0.285 and 0.310 and 0.251
same,IC50,HEK293T,8.9 µM
same,MTT data (raw readout),HepG2; [15],1.211 and 1.032 and 1.095
same,MTT data (raw readout),HepG2; [16],0.940 and 0.892 and 0.823
same,MTT data (raw readout),HepG2; [17],1.059 and 1.047 and 0.930
same,MTT data (raw readout),HepG2; [18],0.912 and 0.982 and 0.829
same,MTT data (raw readout),HepG2; [19],1.201 and 1.007 and 1.154
same,MTT data (raw readout),HepG2; [20],0.862 and 0.878 and 0.892
same,MTT data (raw readout),HepG2; [21],0.908 and 1.012 and 1.031
same,MTT data (raw readout),HepG2; [22],0.861 and 0.862 and 0.848
same,MTT data (raw readout),HepG2; [23],0.964 and 0.831 and 0.983
same,MTT data (raw readout),HepG2; [24],0.918 and 0.866 and 0.845
same,MTT data (raw readout),HepG2; [25],0.840 and 0.880 and 0.890
same,MTT data (raw readout),HepG2; [26],0.798 and 0.838 and 0.803
same,IC50,HepG2,6.8 µM
same,MIC,K. pneumoniae ATCC 29665,12.5 µM
same,MIC,E. coli W3110,6.25 µM
O=S(=O)(NC[C@@H]1CC[C@H](c2ccc(-c3ccccc3)cc2)N1)c1cccc2cnccc12 [Compound 100],cytotoxicity,HEK293T; HEK293T and HepG2,substantial cytotoxicity
same,MTT data (raw readout),HEK293T; [1],1.435 and 1.455 and 1.506
same,MTT data (raw readout),HEK293T; [2],1.022 and 0.970 and 0.963
same,MTT data (raw readout),HEK293T; [3],1.260 and 1.443 and 1.546
same,MTT data (raw readout),HEK293T; [4],1.032 and 0.974 and 0.962
same,MTT data (raw readout),HEK293T; [5],1.440 and 1.428 and 1.427
same,MTT data (raw readout),HEK293T; [6],1.023 and 0.943 and 0.880
same,MTT data (raw readout),HEK293T; [7],1.304 and 1.414 and 1.203
same,MTT data (raw readout),HEK293T; [8],0.795 and 0.796 and 0.802
same,MTT data (raw readout),HEK293T; [9],0.892 and 0.934 and 1.008
same,MTT data (raw readout),HEK293T; [10],0.653 and 0.625 and 0.564
same,MTT data (raw readout),HEK293T; [11],0.787 and 0.844 and 0.842
same,MTT data (raw readout),HEK293T; [12],0.528 and 0.470 and 0.496
same,MTT data (raw readout),HEK293T; [13],0.654 and 0.620 and 0.622
same,MTT data (raw readout),HEK293T; [14],0.433 and 0.475 and 0.464
same,MTT data (raw readout),"HEK293T; 50 uM, experiment n = 1, technical triplicates",0.419 and 0.461 and 0.443
same,MTT data (raw readout),"HEK293T; 50 uM, experiment n = 2, technical triplicates",0.271 and 0.254 and 0.252
same,IC50,HEK293T,8.1 µM
same,MTT data (raw readout),HepG2; [15],0.333 and 0.336 and 0.361
same,MTT data (raw readout),HepG2; [16],0.317 and 0.327 and 0.342
same,MTT data (raw readout),HepG2; [17],0.444 and 0.395 and 0.393
same,MTT data (raw readout),HepG2; [18],0.444 and 0.405 and 0.418
same,MTT data (raw readout),HepG2; [19],0.321 and 0.295 and 0.307
same,MTT data (raw readout),HepG2; [20],0.315 and 0.286 and 0.293
same,MTT data (raw readout),HepG2; [21],0.316 and 0.335 and 0.382
same,MTT data (raw readout),HepG2; [22],0.313 and 0.317 and 0.366
same,MTT data (raw readout),HepG2; [23],0.377 and 0.346 and 0.368
same,MTT data (raw readout),HepG2; [24],0.307 and 0.264 and 0.317
same,MTT data (raw readout),HepG2; [25],0.341 and 0.333 and 0.345
same,MTT data (raw readout),HepG2; [26],0.271 and 0.300 and 0.310
same,MTT data (raw readout),"HepG2; HepG2, 16.7 uM, experiment n = 1, technical triplicates",0.345 and 0.363 and 0.356
same,MTT data (raw readout),"HepG2; HepG2, 16.7 uM, experiment n = 2, technical triplicates",0.277 and 0.308 and 0.357
same,MTT data (raw readout),"HepG2; HepG2, 50 uM, experiment n = 1, technical triplicates",0.236 and 0.222 and 0.339
same,MTT data (raw readout),"HepG2; HepG2, 50 uM, experiment n = 2, technical triplicates",0.109 and 0.122 and 0.118
same,IC50,HepG2,37 µM
same,MIC,K. pneumoniae ATCC 29665,6.25 µM
same,MIC,E. coli W3110,1.6 µM
